Values quoted from earlier work as cited in patent US11278564B2, “Brain function-improving agent, food, and medicine using lipopolysaccharide” (Control of Innate Immunity Technology Research Association, priority 2017, dated 2022).

Details: intraperitoneal injection (NPL 5)

In the case of monophosphoryl lipid A [MPL], the Aβ intracerebral deposition is listed as “Aβ intracerebral deposition suppressing action” and the learning function is listed as “learning function-improving action”.
